From publication PMC7251097, “Aspartate/asparagine-β-hydroxylase: a high-throughput mass spectrometric assay for discovery of small molecule inhibitors” (Scientific Reports, 2020)
Entries after “also recorded” stand apart in the source; their conditions may differ. Counter-ions that a name gives are not always drawn. Like-named read-outs stand apart in the source and are kept apart here.

Molecular target: T1, His6-AspH315–758 (human aspartate/asparagine-β-hydroxylase, AspH) (Homo sapiens, UniProt Q12797)
T1 construct: N-Terminally His6-tagged human AspH315–758 (His6-AspH315–758) was produced in E. coli BL21 (DE3) cells; made in house; host or cells: E. coli BL21 (DE3), pET-28a(+) vector
T1 sequence (Q12797 315-758): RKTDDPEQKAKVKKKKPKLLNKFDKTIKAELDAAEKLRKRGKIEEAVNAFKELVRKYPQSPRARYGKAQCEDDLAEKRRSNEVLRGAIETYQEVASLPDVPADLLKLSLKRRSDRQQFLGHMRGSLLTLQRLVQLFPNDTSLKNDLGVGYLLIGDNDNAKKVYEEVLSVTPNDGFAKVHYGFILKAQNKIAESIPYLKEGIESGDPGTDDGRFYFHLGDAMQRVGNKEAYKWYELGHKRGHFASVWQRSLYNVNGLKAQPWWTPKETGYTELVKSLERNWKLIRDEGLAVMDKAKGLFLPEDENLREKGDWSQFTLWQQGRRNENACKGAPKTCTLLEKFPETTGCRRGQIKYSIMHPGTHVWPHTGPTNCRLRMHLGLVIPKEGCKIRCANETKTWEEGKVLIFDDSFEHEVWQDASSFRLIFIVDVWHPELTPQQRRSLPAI
Assay: SPE-MS AspH inhibition assay (LOPAC screen at fixed 20 μM and IC50 dose-response), hydroxylation of cyclic peptide hFX-CP101–119
Format: biochemical

[1] = LOPAC compound at fixed 20 uM, plate 1, normalised to DMSO and 2,4-PDCA controls
[2] = LOPAC compound at fixed 20 uM, substrate conversion, plate 1
[3] = plate 5 (Pfitzer), test compounds at fixed 20 μM
[4] = plate 5 (Pfitzer), test compounds at fixed 20 μM, mean conversion DMSO 32.88
[5] = LOPAC Plate 4, compound at 20 uM
[6] = LOPAC Plate 4, compound at 20 uM, substrate conversion
[7] = LOPAC Plate 4, compound at 20 uM, read-out: % inhibition
[8] = LOPAC compound at 20uM, plate 2, conversion of substrate peptide
[9] = LOPAC compound at 20uM, plate 2, normalised to DMSO and 2,4-PDCA controls
[10] = LOPAC compound at 20uM, plate 2, normalised to DMSO and 2,4-PDCA controls, read-out: Plate 2 (% inhibition)
[11] = LOPAC compound at 20uM, conversion of substrate peptide
[12] = AspH activity, fixed compound concentration 20 μM, initial LOPAC screen, 0.5%v/v DMSO, read-out: Inhibition at 20 µM [%]

COc1cc(Nc2c(C#N)cnc3cc(OCCCN4CCN(C)CC4)c(OC)cc23)c(Cl)cc1Cl [Bosutinib]
Plate 1 (% inhibition) [1]: -79.17% | Plate 1 (% conversion) [2]: 62.46% | Plate 5 (% inhibition) [3]: -77.35% | Plate 5 (% conversion) [4]: 62.64%

CNc1cc(NS(=O)(=O)c2ccc(N)cc2)nc(NC)n1.Cl.Cl [Ro 04-6790 dihydrochloride]
% inhibition [5]: 35.85% | % conversion [6]: 24.24%

CC(CN(C)C)CN1c2ccccc2CCc2ccccc21 (centres unmarked) [Trimipramine maleate]
% conversion [6]: 41.64% | inhibition at 20 µM [7]: -15.1%

Cl.Cl.Fc1ccc(C(OCCN2CCN(CCCc3ccccc3)CC2)c2ccc(F)cc2)cc1 [GBR-12909 dihydrochloride]
Plate 2 (% conversion) [8]: 51.05% | Plate 2 (% inhibition) [9]: -45.09%

N[C@@H](Cc1c[nH]c2ccc(O)cc12)C(=O)O [5-Hydroxy-L-tryptophan]
Plate 2 (% conversion) [8]: 37.59% | inhibition at 20 µM [10]: -4.87%

CC(C)(C)c1cc(/C=C(\C#N)C(N)=S)cc(C(C)(C)C)c1O [Tyrphostin AG 879]
% conversion [6]: 26.24%

OC(CCN1CCCCC1)(c1ccccc1)C1CC2C=CC1C2 (centres unmarked) [Biperiden hydrochloride]
Plate 1 (% inhibition) [1]: -10.34% | Plate 1 (% conversion) [2]: 39.34%

N#CC(C#N)=C(N)/C(C#N)=C/c1ccc(O)cc1 [Tyrphostin AG 112]
% inhibition [5]: -1.91% | % conversion [6]: 37.12%

O=c1ccc2[nH]cc(C3=CCNCC3)c2[nH]1 [CP-93129]
Plate 5 (% conversion): 38.32% | Plate 5 (% inhibition): -5.90%

CC(=O)C(C)=O [2,3-Butanedione]
Plate 2 (% conversion) [8]: 38.17% | inhibition at 20 µM [10]: -6.62%

COc1cc(NS(C)(=O)=O)ccc1Nc1c2ccccc2nc2ccccc12 [Amsacrine hydrochloride]
Plate 1 (% inhibition) [1]: -10.85% | Plate 1 (% conversion) [2]: 39.52%

NC(=O)c1ncn([C@@H]2O[C@H](CO)[C@@H](O)[C@H]2O)c1O [Mizoribine]
Plate 3 (% conversion) [11]: 41.03%

CCCOc1ccccc1-c1nc2nn[nH]c2c(=O)[nH]1 [Zaprinast]
% conversion [6]: 35.45% | inhibition at 20 µM [7]: 2.99%

COc1cc2c(c(OC)c1OC)-c1ccc(OC)c(=O)cc1[C@@H](NC(C)=O)CC2 [Colchicine]
Plate 1 (% conversion): 37.55% | Plate 1 (% inhibition): -5.00%

CCOc1ncc(S(=O)(=O)N2CCN(CC)CC2)cc1-c1nc2c(CC)n(CCOC)nc2c(=O)[nH]1 [Gisadenafil]
Plate 5 (% inhibition) [3]: 10.85% | Plate 5 (% conversion) [4]: 32.62%

CCN[C@H]1CN(CCCOC)S(=O)(=O)c2sc(S(N)(=O)=O)cc21 [Brinzolamide]
% conversion [6]: 38.63% | inhibition at 20 µM [7]: -6.32%

Cl.Nc1c2c(nc3ccccc13)CCCC2
Plate 1 (% conversion): 23.39%

C#C[C@]1(O)CC[C@H]2[C@@H]3CCC4=Cc5oncc5C[C@]4(C)[C@H]3CC[C@@]21C [Danazol]
Plate 2 (% conversion) [8]: 39.67% | inhibition at 20 µM [10]: -11.1%

Cl.O=c1[nH]oc2c1CCNC2 [THIP hydrochloride]
% conversion: 36.67% | % inhibition (20 µM): -0.58%

CCCCCCN(CCCCCC)C(=O)Cc1c(-c2ccc(F)cc2)[nH]c2ccccc12
Plate 2 (% conversion): 35.52% | Plate 2 (% inhibition) (20 µM): 1.31%

O=c1cc(-c2ccc(O)cc2)oc2cc(O)cc(O)c12 [Apigenin, reference compound]
inhibition at 20 µM [12]: 95.8% | Plate 1 (% inhibition) [1]: 95.84% | Plate 1 (% conversion) [2]: 3.68%

BMS-193885
% conversion [6]: 32.96%

CC(C)c1c(-c2ccccc2)[nH]c2c(C#N)cnn2c1=O [CPI-455, reference compound]
IC50 [μM] (50 nM His6-AspH315–758, 1.0 μM hFX-CP101–119, 3 μM 2OG, 2 μM Fe(II), 50 mM HEPES pH 7.5, 20 °C, mean ± SD, n = 2 (2,4-PDCA n = 10)): inactive

Cc1cc2c(cc1Cl)N(C(=O)Nc1ccc(Oc3cccnc3C)nc1)CC2.Cl.Cl.O [SB 242084 dihydrochloride hydrate]
Plate 3 (% conversion) [11]: 37.92%

O=C(O)Cc1c[nH]c2ccc(O)cc12 [5-Hydroxyindolacetic acid]
Plate 2 (% inhibition) [9]: -3.79%

NCCCS(=O)(=O)O.[Na] [3-Amino-1-propanesulfonic acid sodium]
Plate 1 (% inhibition) [1]: -7.08% | Plate 1 (% conversion) [2]: 38.25%

Nc1nc(Nc2ccccc2)nc2c1ncn2[C@@H]1O[C@H](CO)[C@@H](O)[C@H]1O [2-Phenylaminoadenosine]
% inhibition [5]: -10.62% | % conversion [6]: 40.09%

CNCCc1cnc(CCC(c2ccccc2)c2ccccc2)[nH]1.O=C(O)C(=O)O.O=C(O)C(=O)O [N-Methylhistaprodifen dioxalate salt]
Plate 2 (% conversion) [8]: 8.76% | Plate 2 (% inhibition) [9]: 81.23%

N[C@H]1CON=C1O [L-Cycloserine]
Plate 1 (% inhibition) [1]: -2.43% | Plate 1 (% conversion) [2]: 36.69%

N#CC(C#N)=Cc1ccc(O)c(O)c1 [Tyrphostin 23, reference compound]
inhibition at 20 µM [12]: 98.7% | % conversion [6]: 2.79% | inhibition at 20 µM [7]: 98.7%

5-Bromo-2-deoxyuridine
Plate 1 (% conversion): 35.50% | Plate 1 (% inhibition): 1.12%

COC(=O)C1=CO[C@@H](O)[C@@H]2C(CO)=CC[C@H]12 [Genipin]
Plate 2 (% conversion) [8]: 36.58% | inhibition at 20 µM [10]: -1.85%

CC(C)(C)c1cc(C(C)(C)C)c2c(c1)C(O)(C(F)(F)F)C(=O)O2 (racemic) [rac BHFF]
% inhibition [5]: 72.02% | % conversion [6]: 11.89%

O=C(c1cc(O)c(O)c([N+](=O)[O-])c1)c1ccccc1F [Ro 41-0960, reference compound]
% inhibition [5]: 97.80% | % conversion [6]: 3.09%

CN(C)CCCNC(=O)c1ccc(-c2cc(O)c3ncccc3c2)cc1 [ML324, reference compound]
IC50 (50 nM His6-AspH315–758, 1.0 μM hFX-CP101–119, 3 μM 2OG, 2 μM Fe(II), 50 mM HEPES pH 7.5, 20 °C, mean ± SD, n = 2 (2,4-PDCA n = 10), read-out: IC50): 4.65 ± 1.28 µM

CCCCC#Cc1nc(NC)c2ncn([C@@H]3O[C@H](CO)[C@@H](O)[C@H]3O)c2n1 [HEMADO]
Plate 1 (% inhibition) [1]: 20.82% | Plate 1 (% conversion) [2]: 28.88%

O=C(O)[C@@H]1CCN1 [L-azetidine-2-carboxylic acid]
Plate 1 (% conversion): 39.44% | Plate 1 (% inhibition): -10.62%

N#CCCN.N#CCCN.O=C(O)/C=C/C(=O)O [3-Aminopropionitrile fumarate]
Plate 1 (% inhibition) [1]: 48.97% | Plate 1 (% conversion) [2]: 19.43%

CCn1cnc2c(Nc3cccc(Cl)c3)nc(N[C@@H]3CCCC[C@@H]3N)nc21.Cl [CGP-74514A hydrochloride]
Plate 1 (% conversion): 10.02% | Plate 1 (% inhibition): 76.98%

Cc1onc(-c2ccccc2)c1-c1ccc(S(N)(=O)=O)cc1 [Valdecoxib]
Plate 5 (% inhibition) [3]: 27.98% | Plate 5 (% conversion) [4]: 26.79%

COc1cc(Cc2cnc(N)nc2N)cc(OC)c1OC [Trimethoprim]
% conversion [6]: 37.33%

COc1cc2c(cc1O)CC[C@@H]1[C@@H]2CC[C@]2(C)[C@@H](O)CC[C@@H]12 [2-methoxyestradiol]
Plate 3 (% conversion) [11]: 41.59%

CCCN1C[C@H](CSC)C[C@@H]2c3cccc4[nH]cc(c34)C[C@H]21 [Pergolide methanesulfonate]
% conversion [6]: 40.48% | inhibition at 20 µM [7]: -11.8%

Cc1cccc(/C=C/c2ccccc2)n1 [SIB 1893]
% conversion [6]: 34.05%

Cc1ccc(N(CC2=NCCN2)c2cccc(O)c2)cc1 [Phentolamine mesylate]
% conversion [6]: 38.87% | inhibition at 20 µM [7]: -7.04%

[Ca+2].[Cl-].[Cl-] [Ca(II), CaCl2, reference compound]
IC50 metal ion, AspH [μM] (50 nM AspH, 2.0 μM Fe(II), Zn(OAc)2, NiSO4, CoCl2, MnCl2, CaCl2 as metal sources, n = 2, mean ± SD): do not show any effect; also recorded: does not perturb AspH activity; also recorded: inactive

CC(=O)[C@]1(O)Cc2c(O)c3c(c(O)c2[C@@H](O[C@H]2C[C@H](N)[C@H](O)[C@H](C)O2)C1)C(=O)c1ccccc1C3=O [Idarubicin]
Plate 2 (% conversion) [8]: 34.69% | inhibition at 20 µM [10]: 3.78%
